# Measured values as given in patent US4255183A, “Substituted phenyl urea and herbicides for use in paddy field” (Hokko Chemical Industry Co., Ltd., priority 1977, dated 1981).
# Like-named read-outs stand apart in the source and are kept apart here.
# What was measured:
# [1] = system: Echinochloa crus-galli var. oryzicola; assay: Test Example 2: concrete pot test on killing effect, Echinochloa crus-galli var. oryzicola; assay type: in vivo; conditions: Echinochloa crus-galli, 720 h; for inhibition at 9000 g/ha: 900 g/10 are
# Description: (§1) In a Wagner pot of 1/500 are, paddy field soil (alluvial soil) was placed and 50 seeds of Echinochloa crus-galli var. oryzicola and 30 seeds of paddy rice were seeded in the surface layer of said soil and the submerging depth was kept at about 1 cm. When Echinochloa crus-galli var. oryzicola reached at the one leaf stage and 5-leaf stage, the emulsion of a predetermined concentration, prepared according to Example 4 was added dropwise. After 30 days from the treatment with the chemical, dry weights of Echinochloa crus-galli var. oryzicola and paddy rice were measured and the inhibition rate was calculated with reference to untreated area. [formula]
# (§2) In a concrete pot of 1/400 are (50 cm×50 cm), paddy field soil (alluvial soil) was placed and 200 seeds of Echinochloa crus-galli var. oryzicola were seeded in 10 surface layer of said soil and the soil was submerged at about 3 cm depth. Before emergence of Echinochloa crus-galli var. oryzicola, paddy rice at 2.5-leaf stage (Asahi species) was transplanted at the rate of 8 stubs per pot, planting 3 seedlings per stub. At the one-leaf stage (3.5 leaves stage of paddy rice) and 5 leaves stage (7 leaves stage of paddy rice) of Echinochloa crus-galli var. oryzicola, the granule prepared according to Example 1 was applied. […] 30 Days after the treatment with the chemical, examination was made in the similar manner as Test Example 1 to obtain results as shown in Table 2.
# (§3) In the table, as the comparative chemicals CPN, Benthiocarb, Molinate and Simetryne, those commercially available were used and the comparative chemicals A and B (as mentioned before) used were prepared according to the process for preparing the compound of this invention.
# [2] = system: paddy rice; assay: whole plant or invertebrate; assay type: in vivo, paddy rice (Asahi species); conditions: Oryza sativa, 720 h; for inhibition at 9000 g/ha: 900 g/10 are
# Description: as §1, §2, §3
# [3] = system: Echinochloa crus-galli var. oryzicola; assay: Test Example 1: pot test on selectivity, inhibition of Echinochloa crus-galli var. oryzicola; assay type: in vivo; conditions: dry weight 30 days after treatment; for inhibition at 750 g/ha / inhibition at 1500 g/ha / inhibition at 3000 g/ha / inhibition at 6000 g/ha / inhibition at 9000 g/ha: Echinochloa crus-galli, 720 h
# Description: as §1
# (§4) The comparative chemicals used, i.e. DCMU and Linuron, were those commercially available, and the comparative chemicals A and B used were prepared according to the process for formulating the compound of this invention.
# [4] = system: paddy rice; assay: Test Example 1: pot test on selectivity, inhibition of paddy rice; assay type: in vivo; conditions: dry weight 30 days after treatment
# Description: as §1, with “When Echinochloa crus-galli var. oryzicola reached at the one leaf stage and 5-leaf stage, the emulsion of a predetermined concentration, prepared according to Example 4 was added dropwise.” left out
# as §4
# [5] = read-out: Inhibition (%) by treatment at 1-leaf stage of E. crus-galli var. oryzicola, E. crus-galli var. oryzicola
# [6] = read-out: Inhibition (%) by treatment at 5-leaf stage of E. crus-galli var. oryzicola, E. crus-galli var. oryzicola
# [7] = read-out: Inhibition (%) by treatment at 1-leaf stage of E. crus-galli var. oryzicola, paddy rice
# [8] = read-out: Inhibition (%) by treatment at 5-leaf stage of E. crus-galli var. oryzicola, paddy rice
structure (smiles),measurement,setting,value
"O=[N+]([O-])c1ccc(Oc2c(Cl)cc(Cl)cc2Cl)cc1 [CNP, 2,4,6-trichlorophenyl-4'-nitrophenylether]",inhibition at 1000 g/ha,"[1]; 100 g/10 are, granule, 30 days after treatment, read-out: Inhibition (%) by treatment at 1-leaf stage of E. crus-galli var. oryzicola, E. crus-galli var. oryzicola",65%
same,inhibition at 1000 g/ha,"[1]; 100 g/10 are, granule, 30 days after treatment, read-out: Inhibition (%) by treatment at 5-leaf stage of E. crus-galli var. oryzicola, E. crus-galli var. oryzicola",0%
same,inhibition at 3000 g/ha,"[1]; 300 g/10 are, granule, 30 days after treatment, read-out: Inhibition (%) by treatment at 1-leaf stage of E. crus-galli var. oryzicola, E. crus-galli var. oryzicola",100%
same,inhibition at 3000 g/ha,"[1]; 300 g/10 are, granule, 30 days after treatment, read-out: Inhibition (%) by treatment at 5-leaf stage of E. crus-galli var. oryzicola, E. crus-galli var. oryzicola",0%
same,inhibition at 9000 g/ha,"[1]; granule, 30 days after treatment, read-out: Inhibition (%) by treatment at 1-leaf stage of E. crus-galli var. oryzicola, E. crus-galli var. oryzicola",100%
same,inhibition at 9000 g/ha,"[1]; granule, 30 days after treatment, read-out: Inhibition (%) by treatment at 5-leaf stage of E. crus-galli var. oryzicola, E. crus-galli var. oryzicola",0%
same,inhibition at 1000 g/ha,"[2]; 100 g/10 are, granule, rice at 3.5 leaves stage, 30 days, read-out: Inhibition (%) by treatment at 1-leaf stage of E. crus-galli var. oryzicola, paddy rice",0%
same,inhibition at 1000 g/ha,"[2]; 100 g/10 are, granule, rice at 7 leaves stage, 30 days, read-out: Inhibition (%) by treatment at 5-leaf stage of E. crus-galli var. oryzicola, paddy rice",0%
same,inhibition at 3000 g/ha,"[2]; 300 g/10 are, granule, rice at 3.5 leaves stage, 30 days, read-out: Inhibition (%) by treatment at 1-leaf stage of E. crus-galli var. oryzicola, paddy rice",8%
same,inhibition at 3000 g/ha,"[2]; 300 g/10 are, granule, rice at 7 leaves stage, 30 days, read-out: Inhibition (%) by treatment at 5-leaf stage of E. crus-galli var. oryzicola, paddy rice",0%
same,inhibition at 9000 g/ha,"[2]; granule, rice at 3.5 leaves stage, 30 days, read-out: Inhibition (%) by treatment at 1-leaf stage of E. crus-galli var. oryzicola, paddy rice",52%
same,inhibition at 9000 g/ha,"[2]; granule, rice at 7 leaves stage, 30 days, read-out: Inhibition (%) by treatment at 5-leaf stage of E. crus-galli var. oryzicola, paddy rice",0%
CC=CCOc1ccc(NC(=O)N(C)C)cc1 [Mixture of trans- and cis-forms 1:4],"Inhibition (%) by treatment at 1-leaf stage, E. crus-galli var. oryzicola","[3]; 75 g/10 are, 1-leaf stage",93%
same,"Inhibition (%) by treatment at 5-leaf stage, E. crus-galli var. oryzicola","[3]; 75 g/10 are, 5-leaf stage",84%
same,"Inhibition (%) by treatment at 1-leaf stage, E. crus-galli var. oryzicola","[3]; 150 g/10 are, 1-leaf stage",100%
same,"Inhibition (%) by treatment at 5-leaf stage, E. crus-galli var. oryzicola","[3]; 150 g/10 are, 5-leaf stage",100%
same,"Inhibition (%) by treatment at 1-leaf stage, E. crus-galli var. oryzicola","[3]; 300 g/10 are, 1-leaf stage",100%
same,"Inhibition (%) by treatment at 5-leaf stage, E. crus-galli var. oryzicola","[3]; 300 g/10 are, 5-leaf stage",100%
same,"Inhibition (%) by treatment at 1-leaf stage, E. crus-galli var. oryzicola","[3]; 600 g/10 are, 1-leaf stage",100%
same,"Inhibition (%) by treatment at 5-leaf stage, E. crus-galli var. oryzicola","[3]; 600 g/10 are, 5-leaf stage",100%
same,"Inhibition (%) by treatment at 1-leaf stage, E. crus-galli var. oryzicola","[3]; 900 g/10 are, 1-leaf stage",100%
same,"Inhibition (%) by treatment at 5-leaf stage, E. crus-galli var. oryzicola","[3]; 900 g/10 are, 5-leaf stage",100%
same,"Inhibition (%) by treatment at 1-leaf stage, paddy rice","[4]; 75 g/10 are, 1-leaf stage",0%
same,"Inhibition (%) by treatment at 5-leaf stage, paddy rice","[4]; 75 g/10 are, 5-leaf stage",0%
same,"Inhibition (%) by treatment at 1-leaf stage, paddy rice","[4]; 150 g/10 are, 1-leaf stage",0%
same,"Inhibition (%) by treatment at 5-leaf stage, paddy rice","[4]; 150 g/10 are, 5-leaf stage",0%
same,"Inhibition (%) by treatment at 1-leaf stage, paddy rice","[4]; 300 g/10 are, 1-leaf stage",0%
same,"Inhibition (%) by treatment at 5-leaf stage, paddy rice","[4]; 300 g/10 are, 5-leaf stage",0%
same,"Inhibition (%) by treatment at 1-leaf stage, paddy rice","[4]; 600 g/10 are, 1-leaf stage",0%
same,"Inhibition (%) by treatment at 5-leaf stage, paddy rice","[4]; 600 g/10 are, 5-leaf stage",0%
same,"Inhibition (%) by treatment at 1-leaf stage, paddy rice","[4]; 900 g/10 are, 1-leaf stage",4%
same,"Inhibition (%) by treatment at 5-leaf stage, paddy rice","[4]; 900 g/10 are, 5-leaf stage",0%
CC=CCOc1ccc(NC(=O)N(C)C)cc1 [Mixture of trans- and cis-forms 4:1],inhibition at 750 g/ha,"[3]; 75 g/10 are, 1-leaf stage, read-out: Inhibition (%) by treatment at 1-leaf stage, E. crus-galli var. oryzicola",94%
same,inhibition at 750 g/ha,"[3]; 75 g/10 are, 5-leaf stage, read-out: Inhibition (%) by treatment at 5-leaf stage, E. crus-galli var. oryzicola",80%
same,inhibition at 1500 g/ha,"[3]; 150 g/10 are, 1-leaf stage, read-out: Inhibition (%) by treatment at 1-leaf stage, E. crus-galli var. oryzicola",100%
same,inhibition at 1500 g/ha,"[3]; 150 g/10 are, 5-leaf stage, read-out: Inhibition (%) by treatment at 5-leaf stage, E. crus-galli var. oryzicola",100%
same,inhibition at 3000 g/ha,"[3]; 300 g/10 are, 1-leaf stage, read-out: Inhibition (%) by treatment at 1-leaf stage, E. crus-galli var. oryzicola",100%
same,inhibition at 3000 g/ha,"[3]; 300 g/10 are, 5-leaf stage, read-out: Inhibition (%) by treatment at 5-leaf stage, E. crus-galli var. oryzicola",100%
same,inhibition at 6000 g/ha,"[3]; 600 g/10 are, 1-leaf stage, read-out: Inhibition (%) by treatment at 1-leaf stage, E. crus-galli var. oryzicola",100%
same,inhibition at 6000 g/ha,"[3]; 600 g/10 are, 5-leaf stage, read-out: Inhibition (%) by treatment at 5-leaf stage, E. crus-galli var. oryzicola",100%
same,inhibition at 9000 g/ha,"[3]; 900 g/10 are, 1-leaf stage, read-out: Inhibition (%) by treatment at 1-leaf stage, E. crus-galli var. oryzicola",100%
same,inhibition at 9000 g/ha,"[3]; 900 g/10 are, 5-leaf stage, read-out: Inhibition (%) by treatment at 5-leaf stage, E. crus-galli var. oryzicola",100%
same,"Inhibition (%) by treatment at 1-leaf stage, paddy rice","[4]; 900 g/10 are, 1-leaf stage",1%
same,inhibition at 750 g/ha,"[4]; Oryza sativa, 720 h, 75 g/10 are, 1-leaf stage, read-out: Inhibition (%) by treatment at 1-leaf stage, paddy rice",0%
same,inhibition at 750 g/ha,"[4]; Oryza sativa, 720 h, 75 g/10 are, 5-leaf stage, read-out: Inhibition (%) by treatment at 5-leaf stage, paddy rice",0%
same,inhibition at 1500 g/ha,"[4]; Oryza sativa, 720 h, 150 g/10 are, 1-leaf stage, read-out: Inhibition (%) by treatment at 1-leaf stage, paddy rice",0%
same,inhibition at 1500 g/ha,"[4]; Oryza sativa, 720 h, 150 g/10 are, 5-leaf stage, read-out: Inhibition (%) by treatment at 5-leaf stage, paddy rice",0%
same,inhibition at 3000 g/ha,"[4]; Oryza sativa, 720 h, 300 g/10 are, 1-leaf stage, read-out: Inhibition (%) by treatment at 1-leaf stage, paddy rice",0%
same,inhibition at 3000 g/ha,"[4]; Oryza sativa, 720 h, 300 g/10 are, 5-leaf stage, read-out: Inhibition (%) by treatment at 5-leaf stage, paddy rice",0%
same,inhibition at 6000 g/ha,"[4]; Oryza sativa, 720 h, 600 g/10 are, 1-leaf stage, read-out: Inhibition (%) by treatment at 1-leaf stage, paddy rice",0%
same,inhibition at 6000 g/ha,"[4]; Oryza sativa, 720 h, 600 g/10 are, 5-leaf stage, read-out: Inhibition (%) by treatment at 5-leaf stage, paddy rice",0%
same,inhibition at 9000 g/ha,"[4]; Oryza sativa, 720 h, 900 g/10 are, 5-leaf stage, read-out: Inhibition (%) by treatment at 5-leaf stage, paddy rice",0%
"CCNc1nc(NCC)nc(SC)n1 [Simetryne, 2,4-bis(ethylamino)-6-methylthio-1,3,5-triazine]",inhibition at 300 g/ha,[1]; [5],20%
same,inhibition at 1000 g/ha,[1]; [5],100%
same,inhibition at 3000 g/ha,[1]; [5],100%
same,inhibition at 300 g/ha,[1]; [6],0%
same,inhibition at 1000 g/ha,[1]; [6],7%
same,inhibition at 3000 g/ha,[1]; [6],36%
same,inhibition at 300 g/ha,[2]; [7],0%
same,inhibition at 1000 g/ha,[2]; [7],74%
same,inhibition at 3000 g/ha,[2]; [7],100%
same,inhibition at 300 g/ha,[2]; [8],0%
same,inhibition at 1000 g/ha,[2]; [8],17%
same,inhibition at 3000 g/ha,[2]; [8],46%
